Data published in US20130131321A1, “LIGANDS FOR ANTIBODY AND Fc-FUSION PROTEIN PURIFICATION BY AFFINITY CHROMATOGRAPHY” (GRAFFINITY PHARMACEUTICALS GMBH, priority 2010, published 2013).
Read-outs that look alike come from different tables or passages of the source.

Experiments:
Bevacizumab [1] = target: T1, Bevacizumab (Homo sapiens, UniProt P01857); assay: Microtiter plate chromatography of resins, Bevacizumab whole IgG (bound, yield, selectivity); assay type: binding, humanized; conditions: for Bevacizumab IgG Bound (%): fraction of whole IgG Bevacizumab bound to resin; for Bevacizumab IgG Yield (%): mass of whole IgG Bevacizumab eluted / mass injected
T1 construct: fused on or other part: humanised anti-VEGF-A VH domain N-terminal of the gamma-1 constant region (engineered, no UniProt entry)

Bevacizumab [2] = assay: as above; assay type: binding, humanized
Tocilizumab = assay: Microtiter plate chromatography of resins, Tocilizumab (bound, yield); assay type: binding, humanized
Palivizumab = assay: Microtiter plate chromatography of resins, Palivizumab (bound, yield); assay type: binding, humanized
[3] = tested on: human poly-IgG (h-poly-IgG); assay: Microtiter plate chromatography of resins, human poly-IgG (bound, yield); assay type: binding
Bevacizumab Fab fragment = assay: Microtiter plate chromatography of resins, Bevacizumab Fab fragment (bound); assay type: binding, humanized; conditions: for Bevacizumab Fab Bound (%): Bevacizumab Fab fragment
Protocol: (§1) Resins were assessed in packed mode by microtiter plate chromatography. For each column, approximately 30 μl of resin were transferred to a 384-well filter plate and sealed with appropriate top frits.
(§2) Columns were equilibrated with 6.7 column volumes (cv) of phosphate buffered saline (0.15 M NaCl, 20 mM sodium phosphate, pH 7.3; PBS) prior to injection. Either 3.3 cv of whole IgGs dissolved at 0.75 mg ml^−1, Fab or Fc fragments dissolved at 0.25 mg ml^−1 (all three in PBS) or host cell proteins (HCP) were injected onto columns. Antibody fragments of Bevacizumab (Fab and Fc) were prepared by cleavage of whole IgG with papain protease (3) according to the protocol of the manufacturer. […] Volumes transferred were spun through columns at 50 g for 1-2 min. During injection of samples, acceleration was reduced to 10 g and centrifugation time increased to 5-10 min. Effluent fractions were collected in 384-well plates and concentrations of protein analyzed by Bradford assay. Protein masses mi, mft and me (see below) were calculated as the product of fraction volume and measured protein concentration.
(§3) The fraction of ‘bound’ protein was calculated as the difference between the total mass of protein injected mi and the mass of protein detected in the flowthrough mft, divided by the total mass of protein injected.
(§4) the fraction of ‘bound’ protein and the ‘yield’ of protein were calculated for each resin based on data for whole IgG-antibodies. In the case of Bevacizumab fragments and host cell proteins, only the fraction of ‘bound’ protein is given. Selectivity of resins was calculated from data for Bevacizumab Whole IgG and host cell proteins. Due to limited experimental precision, selectivity was truncated beyond values of 10.

Bevacizumab Fc fragment = assay: Microtiter plate chromatography of resins, Bevacizumab Fc fragment (bound); assay type: binding, humanized; conditions: for Bevacizumab Fc Bound (%): Bevacizumab Fc fragment
Protocol: as §1, §2, §3, §4

host cell proteins (HCP) = assay: Microtiter plate chromatography of resins, host cell proteins (bound); assay type: binding, CHO; conditions: host cell proteins
Bevacizumab [4] = target: T1, Bevacizumab; assay: Langmuir isotherms by batch adsorption; assay type: binding, humanized; conditions: Bevacizumab in PBS pH 7.3, 25° C., at least 3 h; for Kd: read-out: Kd (dissociation constant, Langmuir isotherm)
Protocol: Experiments were performed with Bevacizumab as antibody. Parameters of Langmuir isotherms for purified antibody were determined by batch adsorption experiments in 96-well microtiter plates. In each well, 10 μl of sorbent slurry (50% v/v) were mixed with 100 μl of protein solution. Initial concentrations varied from 0.05-5 mg ml^−1 in phosphate-buffered saline (0.15 M NaCl, 20 mM phosphate buffer, pH 7.3; PBS). Reactions were agitated vigorously at 25° C. for at least 3 h. Afterwards, antibody concentration in the supernatents were measured by Bradford assay.
Parameters of Langmuir isotherms, i.e. dissociation constants Kd and maximum capacities qm, were determined from the measured concentrations in supernatants. Parameters were estimated by numerical fitting of the model equation derived by Chase (4).

[5] = fraction of bound Bevacizumab whole IgG / fraction of bound HCP, truncated beyond values of 10

| SMILES | Bevacizumab IgG Bound (%) (Bevacizumab [1]) | Bevacizumab IgG Yield (%) (Bevacizumab [1]) | Selectivity (Bevacizumab [2]) | Tocilizumab Bound (%) (Tocilizumab) | Tocilizumab Yield (%) (Tocilizumab) | Palivizumab Bound (%) (Palivizumab) | Palivizumab Yield (%) (Palivizumab) | h-poly-IgG Bound (%) [3] | h-poly-IgG Yield (%) [3] | Bevacizumab Fab Bound (%) (Bevacizumab Fab fragment) | Bevacizumab Fc Bound (%) (Bevacizumab Fc fragment) | HCP Bound (%) (host cell proteins (HCP)) | qm (maximum capacity, Langmuir isotherm) (Bevacizumab [4]) | binding of Bevacizumab Fab-fragment (Bevacizumab Fab fragment; Fab 0.25 mg ml^-1 in PBS) | binding of Bevacizumab Fc-fragment (Bevacizumab Fc fragment; Fc 0.25 mg ml^-1 in PBS) | Kd (Bevacizumab [4]) | Selectivity (Bevacizumab [2]; [5]) |
| --- | --- | --- | --- | --- | --- | --- | --- | --- | --- | --- | --- | --- | --- | --- | --- | --- | --- |
| COc1ccc(NC(=O)c2cc(-c3cccs3)n(C)n2)cc1C(=O)NCCCN [Ligand L6, 2-Methoxy-5-[1-methyl-5-(2-thienyl)pyrazol-3-yl]carboxamidobenzoic acid N-(3-aminopropyl)amide] | 100% | 100% | 2.0 | 100% | 102% | 98% | 100% | 94% | 100% | 79% | 100% | 54% | – | – | – | – | – |
| Cn1nc(C(=O)Nc2cccc(C(=O)NCCCN)c2)cc1-c1ccco1 [Ligand L17, 3-[5-(2-Furyl)-1-methylpyrazol-3-yl]carboxamidobenzoic acid N-(3-aminopropyl)amide] | 100% | 94% | – | 97% | 89% | 81% | 70% | 91% | 87% | – | – | 36% | 26 mg per ml resin | – | – | – | – |
| COc1ccc(NC(=O)c2nn(C)c3ccccc23)cc1C(=O)NCCCN [Ligand L27, 2-Methoxy-5-(1-methylindazol-3-yl)carboxamidobenzoic acid N-(3-aminopropyl)amide] | 100% | 94% | – | 100% | 104% | 100% | 94% | 98% | 89% | 6% | 96% | 35% | 33 mg per ml resin | not the Fab-fragment | bound the Fc-fragment | – | – |
| COc1ccc(NC(=O)c2cncc(-c3cccs3)c2)cc1C(=O)NCCCN [Ligand L5, 2-Methoxy-5-[3-(2-thienyl)pyridin-5-yl]carboxamidobenzoic acid N-(3-aminopropyl)amide] | 100% | 96% | 2.0 | 100% | 80% | 71% | 72% | 97% | 69% | 77% | 84% | 48% | – | – | – | – | – |
| COc1ccc(NC(=O)c2n[nH]c3ccc(Cl)cc23)cc1C(=O)NCCCN [Ligand L4, 5-(5-Chloro-1H-indazol-3-yl)carboxamido-2-methoxybenzoic acid N-(3-aminopropyl)amide] | 100% | 98% | 1.8 | 100% | 93% | 100% | 97% | 100% | 83% | 38% | 100% | 57% | – | – | – | – | – |
| COc1ccc(NC(=O)c2cc(-c3cc(Br)cs3)n(C)n2)cc1C(=O)NCCCN [Ligand L2, 5-[5-(4-Bromo-2-thienyl)-1-methylpyrazol-3-yl]carboxamido-2-methoxybenzoic acid N-(3-aminopropyl)amide] | 100% | 96% | 1.7 | 100% | 91% | – | – | – | – | 100% | 100% | 59% | – | – | – | – | – |
| COc1ccc(NC(=O)c2cncc(-c3ccoc3)c2)cc1C(=O)NCCCN [Ligand L22, 5-[3-(3-Furyl)pyridin-5-yl]carboxamido-2-methoxybenzoic acid N-(3-aminopropyl)amide] | 100% | 92% | – | 62% | 58% | 40% | 34% | 63% | 58% | – | – | 33% | 29 mg per ml resin | – | – | 373 µM | – |
| C#Cc1cncc(C(=O)Nc2ccc(OC)c(C(=O)NCCCN)c2)c1 [Ligand L24, 5-(3-Ethynylpyridin-5-yl)carboxamido-2-methoxybenzoic acid N-(3-aminopropyl)amide] | 100% | 97% | – | 41% | 40% | 24% | 21% | 45% | 47% | – | – | 29% | 33 mg per ml resin | – | – | 596 µM | – |
| COc1ccc(NC(=O)c2nn(C)c3ncccc23)cc1C(=O)NCCCN [Ligand L44, 2-Methoxy-5-(1-methylpyrazolo[3,4-b]pyridin-3-ylcarboxamido)benzoic acid (3-amino-1-propyl)amide] | 100% | 100% | – | 78% | 78% | 56% | 56% | 73% | 73% | – | – | 4% | – | – | – | – | 10.0 |
| COc1ccc(NC(=O)c2cc(-c3ccsc3)n(C)n2)cc1C(=O)NCCCN [Ligand L8, 2-Methoxy-5-[1-methyl-5-(3-thienyl)pyrazol-3-yl]carboxamidobenzoic acid N-(3-aminopropyl)amide] | 100% | 96% | 2.3 | 100% | 97% | 100% | 89% | 100% | 86% | 82% | 99% | 44% | – | – | – | – | – |
| COc1ccc(NC(=O)c2nc3cccnc3[nH]2)cc1C(=O)NCCCN [Ligand L41, 5-(3H-Imidazo[4,5-b]pyridin-2-ylcarboxamido)-2-methoxybenzoic acid (3-amino-1-propyl)amide] | 100% | 100% | – | 91% | 91% | 74% | 71% | 85% | 85% | – | – | 9% | – | – | – | – | 10.0 |
| CCn1nc(C(=O)Nc2ccc(OC)c(C(=O)NCCCN)c2)c2ccccc21 [Ligand L38, 5-(1-Ethylindazol-3-ylcarboxamido)-2-methoxybenzoic acid (3-amino-1-propyl)amide] | 100% | 100% | 2.2 | 100% | 99% | 91% | 79% | 100% | 99% | – | – | 45% | – | – | – | – | – |
